From patent publication US10201545B2, “Styrenyl derivative compounds for treating ophthalmic diseases and disorders” (Acucela Inc., priority 2007, dated 2019) come the findings set out here.

The target in this assay is isomerase (Mus musculus (Mouse), UniProt Q91ZQ5). Nature of the assay: In vivo murine isomerase assay (recovery of 11-cis-retinal after photobleaching). Details: species or system CD-1 (albino) male mice. The settings on record: mouse, po, 5 mg/kg oral gavage, negative numbers leveled to 0%. As for the experimental part:
The capability of styrenyl derivatives to inhibit isomerase is determined by an in vivo murine isomerase assay. Brief exposure of the eye to intense light (“photobleaching” of the visual pigment or simply “bleaching”) is known to photo-isomerize almost all 11-cis-retinal in the retina. The recovery of 11-cis-retinal after bleaching can be used to estimate the activity of isomerase in vivo. Procedures were performed essentially as described by Golczak et al., Proc. Natl. Acad. Sci. USA 102:8162-67 (2005). See also Deigner et al., Science, 244: 968-71 (1989); Gollapalli et al., Biochim Biophys Acta. 1651: 93-101 (2003); Parish, et al., Proc. Natl. Acad. Sci. USA, 14609-13 (1998); Radu, et al., Proc Natl Acad Sci USA 101: 5928-33 (2004). […] Mice were gavaged with styrenyl derivative compounds, Compound 1 or Compound 25. Compound B was included as a positive control, and Compound A with low activity was also included. After 1-72 hours in the dark, the mice were exposed to photobleaching of 3,000 lux of white light for 10 minutes. The mice were allowed to recover 2 hours in the dark. The animals were then sacrificed by carbon dioxide inhalation. Retinoids were extracted from the eye and the regeneration of 11-cis-retinal was assessed at various time intervals. All steps were performed in darkness with minimal redlight illumination (low light darkroom lights and […] flashlights for spot illumination as needed) (see, e.g., Maeda et al., J. Neurochem 85:944-956, 2003; Van Hooser et al., J Biol Chem 277:19173-82, 2002). After the mice were sacrificed, the eyes were immediately removed and placed in liquid nitrogen. The eyes were then homogenized in a glass/glass homogenizer (Kontes Glass Co., homogenizer & pestle 21) containing 1 ml retinoid analysis buffer (50 mM MOPS, 10 mM NH2OH, 50% EtOH, pH 7.0 (stock buffer was stored in absence of ethanol)). The eyes were homogenized until no visible tissue remained (approximately 3 minutes). The samples were incubated 20 minutes at room temperature (including homogenizing) and then placed on ice. One ml cold EtOH was added to the homogenate to rinse the pestle, and the homogenate mixture was transferred to 7 ml glass screwtop tubes on ice. The homogenizer was rinsed with 7 ml hexane, which was added to the 7 ml tubes on ice. The homogenate was mixed by vortexing at high speed for 1 minute. The phases were separated by centrifugation (5 minutes at 4000 rpm, 4° C.). The upper phase was collected and transferred to a clean glass test tube, taking care to avoid disturbing the interface by leaving approximately 0.2 ml of upper phase in the tube. The tubes with the collected upper phase were placed in a heating block at 25° C. and dried under a stream of Argon ( 30 minutes). The lower phase was again extracted by adding 4 ml hexane, vortexing, and separating the phases by centrifugation. The upper phase was collected as described above and pooled into the drying tubes. The dried samples were solubilized in 300 μl Hexane (Fisher Optima grade) and vortexed lightly. The samples were transferred to clean 300 μl glass inserts in HPLC vials using glass pipette and the vials were crimped shut tightly. […] Part #235341). […] The area under the curve for 11-cis retinal oxime was calculated by Agilent Chemstation software and was recorded manually. Data processing was performed using Prizm software. Positive control mice (no compound administered) were sacrificed fully dark-adapted and the eye retinoids analyzed. Light (bleached) control mice (no compound administered) were sacrificed and retinoids isolated and analyzed immediately after light treatment.

isomerase, sequence (Q91ZQ5 whole entry): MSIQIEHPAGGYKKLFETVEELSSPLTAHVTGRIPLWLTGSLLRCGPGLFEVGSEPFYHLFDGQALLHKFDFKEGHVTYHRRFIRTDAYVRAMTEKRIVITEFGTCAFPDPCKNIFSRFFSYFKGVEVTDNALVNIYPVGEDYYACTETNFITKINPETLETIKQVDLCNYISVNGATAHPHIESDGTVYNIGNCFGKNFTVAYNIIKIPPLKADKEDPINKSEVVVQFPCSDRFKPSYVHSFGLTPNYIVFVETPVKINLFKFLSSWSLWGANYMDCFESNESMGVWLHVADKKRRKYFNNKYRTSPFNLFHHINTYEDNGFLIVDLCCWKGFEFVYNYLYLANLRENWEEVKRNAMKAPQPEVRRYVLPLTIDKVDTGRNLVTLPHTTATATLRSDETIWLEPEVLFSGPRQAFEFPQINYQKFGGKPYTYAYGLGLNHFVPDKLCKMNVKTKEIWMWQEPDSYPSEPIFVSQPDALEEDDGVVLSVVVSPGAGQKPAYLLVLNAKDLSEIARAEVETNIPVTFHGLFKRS

As usually defined, the inhibition is the drop in the measured response relative to a control, in per cent. A higher inhibition goes with a strong effect. Consider `NCCC(O)c1cccc(/C=C/C2(O)CCCCC2)c1` (centres unmarked) [Example 111, (E)-1-(3-(3-amino-1-hydroxypropyl)styryl)cyclohexanol], for which the inhibition at 5 mg/kg (4 h) came out at 90% and the inhibition at 5 mg/kg (24 h) stood at 0%.
